How the values were obtained:
[1] = target: T1, Acetylcholinesterase from Electrophorus electricus (Electrophorus electricus, UniProt O42275); assay: biochemical; assay type: biochemical; settings: for inhibition at 1000 µM: 1 mM solution of the tested compound, read-out: Activity [%] (inhibition percentage of AChE); for IC50: mean ± SD of three experiments, read-out: AChE IC50; for SI AChE: IC50(BChE)/IC50(AChE)
T1 construct: purchased Sigma-Aldrich, Hamburg, Germany

[2] = target: T2, butyrylcholinesterase from equine serum (Equus caballus, UniProt P81908); assay: biochemical; settings: for inhibition at 1000 µM: 1 mM solution of the tested compound, read-out: Activity [%] (inhibition percentage of BChE); for SI BChE: IC50(AChE)/IC50(BChE); for IC50: mean ± SD of three experiments, read-out: BChE IC50
T2 construct: butyrylcholinesterase from equine serum; purchased Sigma-Aldrich, Hamburg, Germany; host or cells: equine serum
T2 sequence (P81908 whole entry): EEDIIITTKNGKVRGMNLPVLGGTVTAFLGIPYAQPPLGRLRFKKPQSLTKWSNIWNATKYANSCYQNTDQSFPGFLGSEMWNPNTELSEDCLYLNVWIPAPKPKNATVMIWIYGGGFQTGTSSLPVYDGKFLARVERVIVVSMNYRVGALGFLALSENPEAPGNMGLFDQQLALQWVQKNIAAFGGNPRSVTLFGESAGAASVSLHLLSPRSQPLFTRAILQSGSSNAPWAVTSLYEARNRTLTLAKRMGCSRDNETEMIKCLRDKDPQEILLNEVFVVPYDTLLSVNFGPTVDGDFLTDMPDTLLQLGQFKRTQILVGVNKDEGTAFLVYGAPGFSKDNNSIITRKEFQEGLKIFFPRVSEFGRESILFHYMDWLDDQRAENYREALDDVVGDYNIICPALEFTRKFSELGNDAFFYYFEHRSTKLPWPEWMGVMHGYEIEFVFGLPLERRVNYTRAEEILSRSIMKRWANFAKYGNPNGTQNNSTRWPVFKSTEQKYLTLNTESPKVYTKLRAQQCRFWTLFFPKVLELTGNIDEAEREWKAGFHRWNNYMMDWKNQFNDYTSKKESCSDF

Neuro-2a cells = assay: MTT cytotoxicity, Neuro-2a; assay type: cell-based, murine; settings: Mus musculus, N2a; MTT, 72 h exposure; read-out: Neuro-2a IC50
SH-SY5Y cells = assay: MTT cytotoxicity, SH-SY5Y; assay type: cell-based, human; settings: Homo sapiens, SH-SY5Y; MTT, 72 h exposure; read-out: SH-SY5Y IC50
CCL-1 cells = assay: MTT cytotoxicity, CCL-1 normal fibroblasts; assay type: cell-based, murine; settings: Mus musculus, Fibroblast; MTT, 72 h exposure; read-out: CCL-1 IC50
[3] = Ferric reducing antioxidant power (FRAP); settings: 150 μL of 5 mM compound, 30 min, 593 nm, Trolox equivalent
[4] = Lipid peroxidation in linoleic acid system, FTC method; settings: 10 mM compound, 500 nm
Method: The antioxidant activity of studied compounds against lipid peroxidation was measured through ammonium thiocyanate assay as described by Takao et al. [66] with some modifications. […] A 10 μL aliquot of the reaction solution was then added to 200 μL of 70% (v/v) ethanol and 10 μL of 30% (w/v) ammonium thiocyanate. […] Aliquots were assayed every 24 h until the day after the absorbance of the control solution (without compound) reached maximum value. BHT (10 mM) was used as positive control.

PAMPA-BBB permeability = assay type: in vitro ADME; settings: for PAMPA BBB −logPe: experimentally measured BBB permeability
Excerpt: At the same time, they needed to fulfill the requirement for good BBB permeation in order to achieve sufficient brain exposure. Although transport across the BBB is quite a complex phenomenon, passive diffusion is still the primary route for exogenous substances to access that target. So, the selected compounds were subjected to an in vitro PAMPA-BBB assay, relying on the capacity of the method in distinguishing the candidates with good BBB passive permeabilities. […].
The blood–brain barrier permeabilities were measured by PAMPA Permeability Analyzer (pIONInc, Billerica, MA, USA). The tested compounds and reference standards were prepared as 10 mM stock solutions in DMSO and further diluted in Prisma HT buffer pH 7.4. The experiment followed the BBB Protocol: 200 μL sample’s aliquots in the donor compartment, Brain Sink Buffer aliquots (200 μL) in the acceptor wells, BBB-1 lipid for coating the permeation membranes, “sandwich” assembly with the acceptor plate on top of the donor one, and incubation at temperature 25 °C for 4 h under humidity control without stirring. For permeability assessment, UV spectra of the blank, reference, donor, and acceptor plates were collected at wavelength 250–500 nm. […]. Samples were analyzed in triplicate and average values were reported. […]. Theophylline, corticosterone, and propranolol HCl were used as reference standards to control the quality and consistency of the BBB permeability experiment.

[5] = DPPH radical scavenging activity; settings: 300 μL of 5 mM compound in MeOH, 30 min, 517 nm
Method: The DPPH (2,2-diphenyl-1-picryl-hydrazyl-hydrate) free radical scavenging activity method is based on the neutralization of the DPPH radical by an antioxidant.
Free radical scavenging activity was measured using DPPH method [69, 70] with slight modification. Here, 300 μL of 5 mM solutions of tested compounds in MeOH were added to 2 mL methanolic solution of DPPH (2 mg/mL). […] Results were evaluated as percentage scavenging of radical:DPPH radical scavenging activity (%) = ((Abscontr. − Abssample)/Abscontr.) ×100, where Abscontr. is the absorbance of DPPH radical with 300 μL MeOH, Abssample is the absorbance of DPPH radical solution mixed with sample. BHT was used as positive control.

[6] = ABTS radical scavenging assay; settings: 734 nm after 5 min
Method: These compounds were also tested for their antioxidant activities by using the ABTS [2,2′-azinobis (3-ethylbenzothiazoline-6-sulfonic acid)] cation radical decolorization method (Table 4). The BHT [41] was used for comparison. The ABTS cation radical is produced by oxidation of the ABTS molecule with strong oxidizing agents, such as potassium persulfate in water.
For ABTS assay, the procedure followed the method of Arnao et al. [71] with some modifications. […] The working solution was then prepared by mixing the two stock solutions in equal quantities and allowing them to react for 14 h at room temperature in the dark. […] A fresh ABTS solution was prepared for each assay. […] The ABTS scavenging capacity of the compound was calculated as follows:ABTS radical scavenging activity (%) = ((Abscontr. − Abssample)/Abscontr.) ×100, where Abscontr. is the absorbance of DPPH radical with 300 μL MeOH, Abssample is the absorbance of DPPH radical solution mixed with the sample. […] BHT was used as positive control.

T1 sequence (O42275 24-633): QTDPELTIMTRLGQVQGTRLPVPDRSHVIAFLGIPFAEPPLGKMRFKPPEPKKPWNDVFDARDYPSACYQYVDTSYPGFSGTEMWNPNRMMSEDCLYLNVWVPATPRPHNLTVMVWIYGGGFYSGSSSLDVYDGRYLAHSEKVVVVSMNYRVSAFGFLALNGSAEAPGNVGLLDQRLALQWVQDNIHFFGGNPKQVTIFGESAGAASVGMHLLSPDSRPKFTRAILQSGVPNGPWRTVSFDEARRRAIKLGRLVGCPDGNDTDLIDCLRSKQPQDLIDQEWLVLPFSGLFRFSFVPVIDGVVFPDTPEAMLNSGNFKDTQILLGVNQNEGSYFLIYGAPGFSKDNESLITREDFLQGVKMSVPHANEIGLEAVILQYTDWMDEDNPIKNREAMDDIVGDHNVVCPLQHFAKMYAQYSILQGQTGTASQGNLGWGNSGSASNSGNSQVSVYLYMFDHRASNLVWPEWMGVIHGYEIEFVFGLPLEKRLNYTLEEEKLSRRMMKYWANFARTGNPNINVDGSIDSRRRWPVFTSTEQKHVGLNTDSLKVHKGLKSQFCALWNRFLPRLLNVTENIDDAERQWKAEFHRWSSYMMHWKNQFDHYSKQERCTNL

| Compound | inhibition at 1000 µM [1] [%] | IC50 [1] [µM] | inhibition at 1000 µM [2] [%] | SI BChE [2] | IC50 [2] [µM] | IC50 (Neuro-2a cells) [µM] | IC50 (SH-SY5Y cells) [µM] | IC50 (CCL-1 cells) [µM] | FRAP [3] [μMTE] | Absorbance Day 1 [4] | Absorbance Day 2 [4] | Absorbance Day 3 [4] | Absorbance Day 4 [4] | Absorbance Day 5 [4] | PAMPA BBB −logPe (PAMPA-BBB permeability) | DPPH Activity [5] [%] | SI AChE [1] | ABTS Activity [6] [%] | IC50 [6] [µM] | BBB permeability class (PAMPA-BBB permeability; PAMPA-BBB) |
| --- | --- | --- | --- | --- | --- | --- | --- | --- | --- | --- | --- | --- | --- | --- | --- | --- | --- | --- | --- | --- |
| O=C(Cc1c[nH]c2ccccc12)N/N=C/C1CCN(Cc2ccccc2)CC1 [3a, N’-[(E)-(1-benzylpiperidin-4-yl)methylidene]-2-(1H-indol-3-yl)acetohydrazide] | 78.9 | 76.5 ± 3.04 | 80.4 | 1.35 | 56.5 ± 0.2 | > 300 | 129 ± 7.5 | 138 ± 9.8 | 15.42 ± 0.74 | 0.87 ± 0.03 | 0.87 ± 0.08 | 0.72 ± 0.07 | 0.72 ± 0.05 | 0.71 ± 0.08 | 4.420 | 5.74 ± 0.39 | – | – | – | – |
| O=C(N/N=C/C1CCN(Cc2ccccc2)CC1)c1ccc(O)cc1O [3b, N’-[(E)-(1-benzylpiperidin-4-yl)methylidene]-2,4-dihydroxybenzohydrazide] | 89.3 | 19.8 ± 0.95 | 75.9 | – | 262 ± 8.75 | > 300 | 138 | 154 ± 7.3 | 16.63 ± 0.98 | 0.92 ± 0.06 | 0.93 ± 0.09 | 0.95 ± 0.05 | 0.96 ± 0.01 | 1.00 ± 0.02 | 5.873 | 13.30 ± 0.83 | 13.22 | 93.22 ± 0.30 | 2570 ± 100 | moderately permeable |
| O=C(N/N=C/C1CCN(Cc2ccccc2)CC1)c1c[nH]c2ccccc12 [3c, N’-[(E)-(1-benzylpiperidin-4-yl)methylidene]-1H-indole-3-carbohydrazide] | 72 | 10.8 ± 1.66 | 77 | – | 26.3 ± 3.11 | > 300 | 97.3 | 168 ± 10.4 | 38.97 ± 3.58 | 0.89 ± 0.07 | 0.87 ± 0.02 | 0.85 ± 0.05 | 0.85 ± 0.07 | 0.74 ± 0.05 | 4.466 | 30.05 ± 0.55 | 2.45 | 36.69 ± 0.70 | > 5000 | – |
| CC(C)(C)OC(=O)NCC(=O)N/N=C/c1cn(Cc2ccccc2)c2ccccc12 [3m, tert-butyl(2-{(2E)-2-[(1-benzyl-1H-indol-3-yl)methylidene]hydrazinyl}-2-oxoethyl)carbamate] | 2.01 | > 1000 | 59.4 | 3.05 | 327 ± 34.3 | 109 ± 9.1 | 7.2 ± 1.8 | 65.4 ± 5.1 | 19.06 ± 1.96 | 0.89 ± 0.09 | 0.89 ± 0.01 | 0.92 ± 0.05 | 0.95 ± 0.01 | 0.96 ± 0.08 | 4.377 | 32.06 ± 4.70 | – | 36.20 ± 1.40 | > 5000 | – |
| COc1ccc2[nH]cc(/C=N/NC(=O)Cc3c[nH]c4ccccc34)c2c1 [3n, 2-(1H-indol-3-yl)-N’-[(E)-(5-methoxy-1H-indol-3-yl)methylidene]acetohydrazide] | 29.2 | > 1000 | 73.7 | 47.34 | 21.1 ± 1.48 | 83.7 ± 8.3 | 108 ± 9.4 | 48.2 ± 6.4 | 14.30 ± 0.56 | 0.85 ± 0.05 | 0.87 ± 0.07 | 0.89 ± 0.04 | 0.90 ± 0.01 | 0.92 ± 0.06 | 4.084 | 40.62 ± 0.83 | – | ≥100 | 770 ± 60 | – |
| COc1cc(/C=N/NC(=O)Cc2c[nH]c3ccccc23)ccc1O [3q, N’-[(E)-(4-hydroxy-3-methoxyphenyl)methylidene]-2-(1H-indol-3-yl)acetohydrazide] | 12.8 | > 1000 | 13.9 | – | > 1000 | 254 ± 13.7 | 141 ± 8.8 | 170 ± 14 | 15.60 ± 0.90 | 0.76 ± 0.03 | 0.77 ± 0.08 | 0.79 ± 0.03 | 0.84 ± 0.05 | 0.91 ± 0.09 | – | 20.40 ± 0.83 | – | ≥100 | 2380 ± 70 | – |
| Cc1ccc(S(=O)(=O)N/N=C/c2cn(Cc3ccccc3)c3ccccc23)cc1 [5g, N’-[(E)-(1-benzyl-1H-indol-3-yl)methylidene]-4-methylbenzenesulfonohydrazide] | 2.18 | > 1000 | 40.6 | – | > 1000 | 135 ± 10.9 | 92.1 ± 9.3 | 50.7 ± 3.6 | 15.87 ± 1.13 | 0.82 ± 0.04 | 0.87 ± 0.09 | 0.88 ± 0.09 | 0.87 ± 0.05 | 0.88 ± 0.03 | – | 45.72 ± 1.38 | – | ≥100 | 2080 ± 100 | – |
| COc1ccc(/C=N/NS(=O)(=O)c2ccc(C)cc2)cc1OC [5h, N’-[(E)-(3,4-dimethoxyphenyl)methylidene]-4-methylbenzenesulfonohydrazide] | 10.5 | > 1000 | 26.6 ± 5.11 | – | > 1000 | 136 ± 12.6 | 42 ± 5.2 | 160 | 20.37 ± 0.90 | 0.70 ± 0.09 | 0.82 ± 0.06 | 0.83 ± 0.05 | 0.83 ± 0.06 | 0.80 ± 0.05 | – | 16.94 ± 1.09 | – | ≥100 | 1850 ± 30 | – |
| COc1ccc(/C=N/NS(=O)(=O)c2ccccc2)cc1OC [5i, N’-[(E)-(3,4-dimethoxyphenyl)methylidene]benzenesulfonohydrazide] | 2.63 | > 1000 | 7.67 ± 0.99 | – | > 1000 | 109 ± 5.1 | 40.3 ± 6.1 | 147 | 14.67 ± 0.81 | 0.81 ± 0.08 | 0.83 ± 0.01 | 0.83 ± 0.09 | 0.81 ± 0.02 | 0.83 ± 0.03 | – | 16.21 ± 3.01 | – | 65.29 ± 2.34 | 3740 ± 50 | – |
| O=S(=O)(N/N=C/c1c[nH]c2ccc(OCc3ccccc3)cc12)c1ccccc1 [5k] | 35.4 | > 1000 | 4.97 | – | > 1000 | 77.7 ± 6.9 | 135 ± 14 | 321 ± 16.2 | 22.52 ± 1.29 | 0.80 ± 0.04 | 0.80 ± 0.09 | 0.83 ± 0.05 | 0.84 ± 0.08 | 0.87 ± 0.09 | – | 47.18 ± 1.14 | – | ≥100 | 2570 ± 130 | – |

Reference: article PMC10534827 (Pharmaceuticals, 2023)
